Converted amounts (≈) assume the structure as drawn.
Tests used:
[1] = DPPH free radical scavenging assay (antioxidant activity); details: mean ± SD, triplicate; 30 min at 37 °C, absorbance 517 nm
Text: The 2,2-Diphenyl-1-picrylhydrazyl (DPPH) radical was used to evaluate the antioxidant potential of the synthesized compounds. Different concentrations of the samples were employed in the subject assay. […] The principle of this assay is related to the conversion of the purple-colored free radical into the pale-yellow-colored reduced form, owing to the action of a proton donating or antioxidant agent. […] Alternatively, compound 1d also acquired hydroxy groups on both mentioned positions. These groups are categorized as strong proton donors which tend to participate in the reduction in DPPH free radicals by donating protons.
The synthesized compounds were evaluated for their antioxidant activity by measuring their ability to scavenge DPPH free radicals. A previously described protocol was followed for this purpose. An amount of 20 µL of each of the four different dilutions of test samples (200, 66.66, 22.22, and 7.41 µg/mL) was added to 96-well plates containing 180 µL of DPPH solution. The absorbance at 517 nm was determined after incubating for 30 min at 37 °C. Ascorbic acid (1 mg/mL DMSO) was used as the positive control, and the assay was performed in triplicate. The IC50 values were also calculated using the % of inhibitions at different concentrations using Table Curve 2D Windows version 4.07.

mushroom tyrosinase = mushroom tyrosinase (Agaricus bisporus, UniProt C7FF04); assay: Mushroom tyrosinase inhibitory assay (L-DOPA substrate, dopachrome absorbance at 492 nm); assay type: biochemical; details: compared with kojic acid
Chain of mushroom tyrosinase (C7FF04 2-392): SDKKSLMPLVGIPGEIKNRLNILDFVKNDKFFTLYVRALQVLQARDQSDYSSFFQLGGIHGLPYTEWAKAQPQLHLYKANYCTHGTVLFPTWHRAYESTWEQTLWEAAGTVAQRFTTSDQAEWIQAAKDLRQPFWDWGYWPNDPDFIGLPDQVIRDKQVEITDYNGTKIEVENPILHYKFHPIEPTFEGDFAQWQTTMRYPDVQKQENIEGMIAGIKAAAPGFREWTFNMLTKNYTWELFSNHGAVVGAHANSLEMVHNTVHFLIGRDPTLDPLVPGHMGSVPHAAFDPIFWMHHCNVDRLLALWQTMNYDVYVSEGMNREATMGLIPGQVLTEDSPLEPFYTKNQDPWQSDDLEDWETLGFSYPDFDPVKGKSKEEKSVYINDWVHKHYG
Procedure: An evaluation of the inhibitory effect on the tyrosinase enzyme was conducted on mushroom tyrosinase.
A tyrosinase inhibitory assay was conducted with the mushroom tyrosinase enzyme. An amount of 20 µL of mushroom tyrosinase (30 U/mL) was combined with 140 µL (20 mM, pH 6.8) of phosphate buffer. An amount of 20 µL of inhibitor solution was added to a 96-well microplate. Then pre-incubation at room temperature was conducted for 10 min. A solution of L-DOPA (20 μL—0.85 mM) was added. This was followed by the incubation of the plate for 20 min at 25 °C. Using a microplate reader (OPTIMax, Tunable), the absorbance of dopa-chrome was recorded at 492 nm.
The absorbance of dopa-chrome was measured at 492 nm using a microplate reader (OPTIMax, Tunable, San Jose, CA, USA). […] The IC50 values were used to express the extent of inhibition. The experiments were performed in triplicate for each concentration.

| Compound | melting point [°C] | IC50 in the DPPH free radical scavenging assay [1] [µg/mL] | Tyrosinase inhibitory activity, in words (mushroom tyrosinase) |
| --- | --- | --- | --- |
| O=C(O)c1ccc(NC(=O)C2CSC(c3ccccc3O)N2)cc1O (stereo not drawn) [Compound 1d, 2-Hydroxy-4-[2-(2-hydroxyphenyl)-1,3-thiazolidine-4-carbonyl]-aminobenzoic Acid] | 134 to 135 | 18.27 ± 1.1 (≈ 50.7 µM) | – |
| O=C(O)c1ccc(NC(=O)C2CSC(c3ccc(O)cc3)N2)cc1 (stereo not drawn) [Compound 3a, 4-[2-(4-Hydroxyphenyl)-1,3-thiazolidine-4-carbonyl]-aminobenzoic Acid] | 164 to 166 | – | – |
| COc1ccc(NC(=O)C2CSC(c3ccccc3O)N2)cc1 (stereo not drawn) [Compound 1e, 2-(2-Hydroxyphenyl)-N-(4-methoxyphenyl)-1,3-thiazolidine-4-carboxamide] | 83 to 84 | – | – |
| O=C1O[C@H]([C@@H](O)CO)C(O)=C1O [ascorbic acid, reference compound] | – | 7.83 ± 0.5 (≈ 44.5 µM) | – |
| COc1ccccc1C1NC(C(=O)Nc2ccc(C(=O)O)c(O)c2)CS1 (stereo not drawn) [Compound 2d, 2-Hydroxy-4-[2-(2-methoxyphenyl)-1,3-thiazolidine-4-carbonyl]-aminobenzoic Acid] | 112 to 113 | 18.17 ± 1.0 (≈ 48.5 µM) | moderate activity |
| COc1ccccc1C1NC(C(=O)Nc2ccc(C(=O)O)cc2)CS1 (stereo not drawn) [Compound 2a, 4-[2-(2-Methoxyphenyl)-1,3-thiazolidine-4-carbonyl]-aminobenzoic Acid] | 116 to 117 | – | moderate activity |
| O=C(C1CSC(c2ccccc2O)N1)N1CCOCC1 (stereo not drawn) [Compound 1b, [2-(2-Hydroxyphenyl)-1,3-thiazolidin-4-yl](morpholin-4-yl)-methanone] | 128 to 129 | – | – |
| COc1ccc(C2NC(C(=O)Nc3ccc(C(=O)O)cc3)CS2)cc1 (stereo not drawn) [Compound 4a, 4-[2-(4-Methoxyphenyl)-1,3-thiazolidine-4-carbonyl]-aminobenzoic Acid] | 94 to 95 | – | – |
| COc1ccc(C2NC(C(=O)Nc3ccc(C(=O)O)c(O)c3)CS2)cc1 (stereo not drawn) [Compound 4d, 2-Hydroxy-4-[2-(4-methoxyphenyl)-1,3-thiazolidine-4-carbonyl]-aminobenzoic Acid] | 109 to 110 | – | – |
| O=C(O)c1ccc(NC(=O)C2CSC(c3ccccc3O)N2)cc1 (stereo not drawn) [Compound 1a, 4-[2-(2-Hydroxyphenyl)-1,3-thiazolidine-4-carbonyl]-aminobenzoic Acid] | 135 to 136 | – | – |
| O=C(Nc1ccc(O)cc1)C1CSC(c2ccccc2O)N1 (stereo not drawn) [Compound 1c, 2-(2-Hydroxyphenyl)-N-(4-hydroxyphenyl)-1,3-thiazolidine-4-carboxamide] | 109 to 111 | – | – |
| COc1ccc(NC(=O)C2CSC(c3ccc(OC)cc3)N2)cc1 (stereo not drawn) [Compound 4e, N,2-Bis(4-methoxyphenyl)-1,3-thiazolidine-4-carboxamide] | 129 to 131 | – | moderate activity |
| O=C(O)c1ccc(NC(=O)C2CSC(c3ccc(O)cc3)N2)cc1O (stereo not drawn) [Compound 3d, 2-Hydroxy-4-[2-(4-hydroxyphenyl)-1,3-thiazolidine-4-carbonyl]-aminobenzoic Acid] | 130 to 131 | – | – |
| COc1ccc(NC(=O)C2CSC(c3ccc(O)cc3)N2)cc1 (stereo not drawn) [Compound 3e, 2-(4-Hydroxyphenyl)-N-(4-methoxyphenyl)-1,3-thiazolidine-4-carboxamide] | 115 to 117 | – | moderate activity |
| O=C(Nc1ccc(O)cc1)C1CSC(c2ccc(O)cc2)N1 (stereo not drawn) [Compound 3c, N,2-Bis(4-hydroxyphenyl)-1,3-thiazolidine-4-carboxamide] | 174 to 176 | – | – |

Source: paper PMC10303221, “Synthesis, In Silico Studies, and Antioxidant and Tyrosinase Inhibitory Potential of 2-(Substituted Phenyl) Thiazolidine-4-Carboxamide Derivatives” (Pharmaceuticals, 2023)
